Assay results reported in patent US10376553B2, “Pharmaceutical composition for preventing and treating chronic obstructive lung disease containing, as active ingredient, Magnoliae flos extract, fraction, or active fraction thereof” (KOREA RESEARCH INSTITUTE OF BIOSCIENCE AND BIOTECHNOLOGY, priority 2015, dated 2019).
Where “and” joins values, the source holds several entries; their conditions need not be identical. Equal values may be shown once.

Columns and labels:
H292 cells = experiment: Cytotoxicity (CCK-8 cell viability) of the compounds of Magnoliae flos in H292 cells; type: cell-based, human; details: 24 h, vs 0.2% DMSO control = 100%
Procedure: Then, 10 μl of the CCK-8 solution (Dojindo Laboratories, Japan) was mixed with 90 μl of the medium, and 100 μl thereof was added per well. After incubation for a minimum of 30 minutes to a maximum of 4 hours, the absorbance was measured at 570 nm. The cell viability was calculated according to the following Equation 2 with a negative control group treated with 0.2% DMSO as a reference of 100%.
Cell viability=(Compound treated OD 570 nm value)×100/(Negative control group OD 570 nm value) [Equation 2]

MUC5AC protein = experiment: Inhibition of MUC5AC protein production (immunoassay) by the compounds; type: cell-based, human; details: for Inhibition rate (%): MUC5AC secretion; for Inhibition rate (%) / MUC5AC secretion (Relative amount to TNF-α treated group, %): TNF-α 20 ng/mL; for production of MUC5AC (in words): vs TNF-α treated group = 100%
Procedure: For immunoassay of the resulting MUC5AC, the supernatant (50 uL) recovered was dispensed on to a 96-well plate and dried in a thermostat set at 50° C. It was washed with PBS supplemented with 1% BSA and reacted with an MUC5AC antibody (abcam, USA) at room temperature for 1 hour. A secondary antibody was dispensed thereto for reaction for 1 hour. It was washed again and then reacted with a 3,3′,5,5′-tetramethylbenzidine peroxide solution for 20 minutes. After the reaction was stopped with a sulfuric acid solution, the degree of color development was measured at 450 nm.
As a result, as shown in the following Table 6, the amount of MUCSAC secretion increased in the group treated with TNF-α.

MUC5AC promoters = experiment: MUC5AC promoter luciferase reporter assay in H292 cells; type: cell-based, human; details: Table 7, MUC5AC promoter luciferase reporter, 10 μM, TNF-α 20 ng/mL
From the text: The degree of activation of luciferase was confirmed using a One-glow Luciferase Assay System (Promega).
As a result, as shown in the following Table 7, the activity of the MUC5AC promoters increased in the group treated with TNF-α.

[1] = tested on: inflammatory cells in the bronchoalveolar lavage fluid; experiment: Inflammatory cells in bronchoalveolar lavage fluid of the COPD mouse model (cigarette smoke + LPS); type: in vivo, C57BL/6N mice; details: BALF, vs COPD-induced group
Procedure: Six-week-old male SPF (specific pathogen-free) C57BL/6N mice (22 to 24 g) were supplied by Koatech (Korea). These animals were fed with a sufficient amount of solid feed (no antibiotics, Samyang Feed Co.) and water until the day of the experiment. They were allowed to adapt for 1 week in a light-dark cycle environment at a temperature of 22±2° C. and a humidity of 55±15%, and then subjected to the experiment.
The animal model was exposed to cigarette smoke to induce chronic obstructive pulmonary disease. 3R4F Kentuchy Reference Cigarettes as standard cigarettes for use to generate cigarette smoke were supplied by University of California (USA). The standard cigarettes contain 9.4 mg of tar, 11 mg of total particle matter (TPM), and 12 mg of carbon monoxide per 1 cigarette. The standard cigarettes were used after harmonization for 48 hours to 72 hours at a temperature of 22±1° C. and a humidity of 60±2%. Further, Cigarette Smoke Generator manufactured by Korea BioLink (Korea) was used for exposure to cigarette smoke. Cigarette smoke was inhaled for 1 hour (8 pcs/hour) for 7 days from 1 hour after oral administration of a sample. 10 μg of LPS (lipopolysaccharide) in PBS 50 μL was injected intranasally to each mouse on the 4th day of the experiment after the mouse was anesthetized with zoletyl 1 hour before the exposure to cigarette smoke. The smoking condition was 8 puffs per 1 standard cigarette (volume: 45 mL, duration: 2 seconds, and interval: 1 time/min).
The active fraction of Magnoliae flos (15, 30 mg/kg) and roflumilast (10 mg/kg) as therapeutic substances were dissolved in 0.5% sodium carboxymethyl cellulose and were orally administered 1 hour before the exposure to cigarette smoke.
The experimental groups were divided into (i) normal control (NC) group; (ii) cigarette smoke+LPS exposure group (COPD); (iii) experimental group administered with roflumilast (ROF) (10 mg/kg, p.o) 1 hour before the exposure to cigarette smoke+LPS; and (iv) experimental group administered with the active fraction of Magnoliae flos (15, 30 mg/kg, p.o; Magnoliae flos 15 and Magnoliae flos 30) 1 hour before the exposure to cigarette smoke+LPS. […] Then, they were administered in the same manner as above.
The bronchial alveolar lavage fluid was separated from the animal model treated with the active fraction and the compounds of Magnoliae flos in <Test Example 6-2> above in the following manner, and the number of inflammatory cells was measured.
Specifically, a mouse sonde was inserted into the bronchial tube, a 1 mL syringe containing 0.7 mL of DPBS (Dulbecco's Phosphate-Buffered Saline) was connected thereto, and DPBS was injected into the lung. The injected DPBS was recovered, and this procedure was repeated twice. The bronchoalveolar lavage fluid separated by DPBS was centrifuged at 1,500 rpm for 15 minutes to make a cell pellet. The supernatant was stored frozen at −70° C. for cytokine analysis. Each cell obtained was suspended in DPBS, attached to a slide glass using a cytospin centrifuge, and Diff-Quik stained. The number of inflammatory cells in each sample was counted through microscopic examination, and the inhibition rate was calculated according to the following Equation 3.
Inhibition rate=(Value of COPD-induced group−value of target substance administered group)×100/(Value of COPD-induced group) [Equation 3]

reactive oxygen species = experiment: Production of active oxygen species in BALF of the COPD model (DCF-DA); type: in vivo, C57BL/6N mice
Procedure: Production of active oxygen species in the bronchoalveolar lavage fluid obtained in <Test Example 6-3> above was confirmed by the following method.
Specifically, the separated BALF (200 μL) was treated to the final concentration of 20 μM of DCF-DA (dihydrodichlorofluorescein diacetate, Sigma-Aldrich, USA), followed by culturing for 30 minutes and measurement using Fluorescence (Molecular Device, USA). The inhibition rate was calculated by Equation 3 above.

IL-6 = IL-6 level in BALF of the COPD model (ELISA); type: in vivo, C57BL/6N mice; details: vs COPD-induced group; for IL-6 inhibition rate (%): BALF
Procedure: (§1) Cytokines were measured in the cell supernatant obtained in <Test Example 6-3> above by the following method. Specifically, the levels of IL-6 (R & D System, USA) and TNF-α (BD Bioscience, USA) in the separated BALF were measured by enzyme-linked immuno-sorbent assay (ELISA). Each cytokine analysis was carried out according to the manufacturer's test method.

TNF-α = TNF-α level in BALF of the COPD model (ELISA); type: in vivo, C57BL/6N mice; details: vs COPD-induced group; for TNF-α inhibition rate (%): BALF
Procedure: as §1

[2] = tested on: infiltration of inflammatory cells in the lung tissue; experiment: Lung tissue histopathology (H&E) in the COPD model; type: in vivo, C57BL/6N mice; details: vs COPD-induced group
Procedure: Specifically, the lung was taken out and immediately fixed in a 10% formaldehyde solution, which was then sliced and washed with running water for 8 hours. It was then embedded in […] and Hematoxylin & Eosin stained, and the pathological changes in the lung tissue were examined using an optical microscope.

[3] = 15 mg/kg p.o., vs COPD-induced group
[4] = 30 mg/kg p.o., vs COPD-induced group

Compound	Viability of H292 cells (%, average ± deviation) (H292 cells; 2.5 μM) [%]	Inhibition rate (%) (MUC5AC protein; 2.5 μM)	Inhibition rate (%) (MUC5AC protein; 5 μM)	Inhibition rate (%) (MUC5AC protein; 10 μM)	production of MUC5AC (in words) (MUC5AC protein)	Inhibition rate (%) (MUC5AC promoters)	Inhibition rate of inflammatory cell infiltration (%) Macrophage ([1]; 15 mg/kg p.o.) [%]	Inhibition rate of inflammatory cell infiltration (%) Neutrophil ([1]; 15 mg/kg p.o.) [%]	Inhibition rate of inflammatory cell infiltration (%) Total inflammatory cells ([1]; 15 mg/kg p.o.) [%]	Inhibition rate of inflammatory cell infiltration (%) Macrophage ([1]; 30 mg/kg p.o.) [%]	Inhibition rate of inflammatory cell infiltration (%) Neutrophil ([1]; 30 mg/kg p.o.) [%]	Inhibition rate of inflammatory cell infiltration (%) Total inflammatory cells ([1]; 30 mg/kg p.o.) [%]	Active oxygen inhibition rate (%) (reactive oxygen species; [3])	Active oxygen inhibition rate (%) (reactive oxygen species; [4])	IL-6 inhibition rate (%) (IL-6; 15 mg/kg p.o.)	IL-6 inhibition rate (%) (IL-6; 30 mg/kg p.o.)	TNF-α inhibition rate (%) (TNF-α; 15 mg/kg p.o.)	TNF-α inhibition rate (%) (TNF-α; 30 mg/kg p.o.)	TNF-α secretion in the bronchoalveolar lavage fluid (in words) (TNF-α)	IL-6 in the bronchoalveolar lavage fluid (in words) (IL-6)	also measured
COc1cc([C@H]2OC[C@H]3[C@@H]2CO[C@@H]3c2cc(OC)c(OC)c(OC)c2)cc(OC)c1OC [Compound S3, dimethylliroresinol]	100.55 ± 1.26	2.5	29.38	30.34	inhibited in a manner depending on the concentrations	56.27	19.4 ± 5.4	17.9 ± 6.6	23.3 ± 5.5	33.2 ± 6.2	42.1 ± 3.9	43.5 ± 3.4	15.1 ± 4.7	32.5 ± 3.1	45.9 ± 6.2	43.9 ± 6.5	26.7 ± 7.0	41.7 ± 4.4	concentration-dependent inhibition	–	production of MUC5AC (in words) (MUC5AC protein; listed as Formula 4): inhibited the production of MUC5AC in a manner depending on concentration; increase in inflammatory cells (in words) [1]: effectively inhibited; production of active oxygen species (in words) (reactive oxygen species; 15 and 30 mg/kg, vs COPD-induced group): relatively higher inhibition rates in a manner depending on concentration
COc1ccc([C@H]2OC[C@H]3[C@@H]2CO[C@H]3c2cc(OC)c(OC)c(OC)c2)cc1OC [Compound S4, epimagnolin]	99.81 ± 2.15	9.45	25.76	36.29	inhibited in a manner depending on the concentrations	63.2	0.0 ± 0.0	13.8 ± 4.9	14.0 ± 5.1	21.4 ± 6.5	25.7 ± 5.5	29.1 ± 4.4	13.5 ± 4.3	15.9 ± 4.2	0.0 ± 0.0	40.3 ± 3.7	13.8 ± 5.5	24.7 ± 6.5	concentration-dependent inhibition	concentration-dependent decrease	Viability of H292 cells (%, average ± deviation) (H292 cells; 5 μM): 100.74 ± 2.84%; Viability of H292 cells (%, average ± deviation) (H292 cells; 10 μM): 99.45 ± 1.53%; Viability of H292 cells (%, average ± deviation) (H292 cells; 20 μM): 97.20 ± 1.99%; MUC5AC secretion (Relative amount to TNF-α treated group, %) (MUC5AC protein; 2.5 μM): 90.55 ± 2.59%; MUC5AC secretion (Relative amount to TNF-α treated group, %) (MUC5AC protein; 5 μM): 74.24 ± 2.83%; MUC5AC secretion (Relative amount to TNF-α treated group, %) (MUC5AC protein; 10 μM): 63.71 ± 1.27%; production of MUC5AC (in words) (MUC5AC protein; listed as Formula 5): inhibited the production of MUC5AC in a manner depending on concentration; MUC5AC secretion (Relative amount to TNF-α treated group, %) (MUC5AC promoters): 36.8 ± 6.97%; rate of inhibiting reactive oxygen compared with ROF drug control group (in words) (reactive oxygen species; 30 mg/kg): higher rates of inhibiting reactive oxygen than that of the drug control group treated with ROF
O=C(Nc1c(Cl)cncc1Cl)c1ccc(OC(F)F)c(OCC2CC2)c1 [ROF, roflumilast, reference compound]	–	–	–	–	–	–	–	–	–	–	–	–	–	–	–	–	–	–	–	decreased	Inhibition rate of inflammatory cell infiltration (%) Macrophage ([1]; 10 mg/kg p.o.): 36.9 ± 15.0% and 30.6 ± 9.9%; Inhibition rate of inflammatory cell infiltration (%) Neutrophil ([1]; 10 mg/kg p.o.): 31.9 ± 7.6% and 37.4 ± 8.3%; Inhibition rate of inflammatory cell infiltration (%) Total inflammatory cells ([1]; 10 mg/kg p.o.): 34.9 ± 4.6% and 39.4 ± 7.2%; Active oxygen inhibition rate (%) (reactive oxygen species; 10 mg/kg p.o., vs COPD-induced group): 25.9 ± 4.3%; TNF-α inhibition rate (%) (TNF-α; 10 mg/kg p.o.): 44.8 ± 3.8% and 30.8 ± 5.9%; infiltration of inflammatory cells around the alveoli and bronchi (in words) [2]: reduced
